# Laboratory results as given in patent publication US12728177B2, “Disinfectant composition with rapid antiviral efficacy” (priority 2015, dated 2026).
# Assays:
# [1] = test system: Bacteriophage Phi X174 (ATCC 13706-81); test: Virucidal infectivity (percent reduction in virus infectivity, E. coli outgrowth with resazurin dye); settings: 10-minute exposure;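 note: exposed phage diluted into broth, E. coli outgrowth followed 16-24 h at 37 °C by fluorescence rate, unexposed phage set as 100% signal, phage-free as 0%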
# Method: Bacteriophage Phi X174 (ATCC 13706-81) was added 1:10 (−108 plaque forming units (PFU) per sample) into a solution containing the composition of interest. Following a 10-minute exposure, the sample was transferred 1:10 into Tryptic Soy Broth (TSB). Following 10 minutes in TSB, a second 1:10 dilution was completed into an outgrowth solution for the Phi X174 host (E. coli ATCC 13706) that contained TSB and a resazurin dye. E. coli outgrowth was then monitored at 37° C. for 16-24 hours and the rate of fluorescence development was calculated. The rate observed when Phi X174 was not exposed to any composition represented a 100% Phi X174 signal. The rate observed without Phi X174 present represented a “0% signal.” The rate obtained following Phi X174 exposure to a given composition was compared to the signal obtained with no exposure to calculate the “percent reduction in virus infectivity.”
# [2] = 25° C.; cited from earlier work
# [3] = secondary agent 2-7 mM + Maleic Acid 3 mM
# [4] = secondary agent 2-7 mM + Phosphonc Acid 50-150 mM
# [5] = secondary agent 2-7 mM + Sulfosuccinic Acid 10-32 mM
compound,measurement,setting,value
O=C(O)CC(C(=O)O)S(=O)(=O)O (stereo not shown) [Sulfosuccinic Acid],"reduction in virus infectivity, Primary Antiviral Agent without secondary agent (None)","[1]; Sulfosuccinic Acid 10-32 mM, no secondary agent",0-75%
same,pka1 (first acid dissociation constant),[2],−1.65
[Cl-].[Cl-].[Zn+2] [Zinc Chloride],"% Reduction, Secondary Antiviral Agent Alone",[1]; agent alone 2 mM,5%
same,"% Reduction, Secondary Antiviral Agent Alone",[1]; agent alone 6 mM,0%
same,"% Reduction, Secondary Antiviral Agent Alone",[1]; agent alone 18 mM,0%
same,"% Reduction, Secondary Antiviral Agent Alone",[1]; agent alone 53 mM,0%
same,"reduction in virus infectivity, in Combination with Maleic Acid (3 mM)",[1]; secondary agent 53 mM + Maleic Acid 3 mM,0%
same,"reduction in virus infectivity, in Combination with Phosphonc Acid (50-150 mM)",[1]; secondary agent 53 mM + Phosphonc Acid 50-150 mM,88%
same,"reduction in virus infectivity, in Combination with Sulfosuccinic Acid (10-32 mM)",[1]; secondary agent 53 mM + Sulfosuccinic Acid 10-32 mM,99%
same,"reduction in virus infectivity, in Combination with Maleic Acid (3 mM)",[1]; [3],99%
same,"reduction in virus infectivity, in Combination with Phosphonc Acid (50-150 mM)",[1]; [4],10%
same,"reduction in virus infectivity, in Combination with Sulfosuccinic Acid (10-32 mM)",[1]; [5],99%
same,"reduction in virus infectivity, in Combination with Maleic Acid (3 mM)",[1]; secondary agent 6-13 mM + Maleic Acid 3 mM,99%
same,"reduction in virus infectivity, in Combination with Phosphonc Acid (50-150 mM)",[1]; secondary agent 6-13 mM + Phosphonc Acid 50-150 mM,28%
same,"reduction in virus infectivity, in Combination with Sulfosuccinic Acid (10-32 mM)",[1]; secondary agent 6-13 mM + Sulfosuccinic Acid 10-32 mM,99%
same,"reduction in virus infectivity, in Combination with Maleic Acid (3 mM)",[1]; secondary agent 18-26 mM + Maleic Acid 3 mM,99%
same,"reduction in virus infectivity, in Combination with Sulfosuccinic Acid (10-32 mM)",[1]; secondary agent 18-26 mM + Sulfosuccinic Acid 10-32 mM,99%
[Cl][Fe]([Cl])[Cl] [iron (iii) chloride],"% Reduction, Secondary Antiviral Agent Alone",[1]; agent alone 8 mM,3%
same,"% Reduction, Secondary Antiviral Agent Alone",[1]; agent alone 17 mM,18%
same,"% Reduction, Secondary Antiviral Agent Alone",[1]; agent alone 33 mM,21%
same,"% Reduction, Secondary Antiviral Agent Alone",[1]; agent alone 66 mM,32%
same,"reduction in virus infectivity, in Combination with Maleic Acid (3 mM)",[1]; secondary agent 8 mM + Maleic Acid 3 mM,0%
same,"reduction in virus infectivity, in Combination with Sulfosuccinic Acid (10-32 mM)",[1]; secondary agent 8 mM + Sulfosuccinic Acid 10-32 mM,99%
same,"reduction in virus infectivity, in Combination with Maleic Acid (3 mM)",[1]; secondary agent 17 mM + Maleic Acid 3 mM,23%
same,"reduction in virus infectivity, in Combination with Sulfosuccinic Acid (10-32 mM)",[1]; secondary agent 17 mM + Sulfosuccinic Acid 10-32 mM,99%
same,"reduction in virus infectivity, in Combination with Maleic Acid (3 mM)",[1]; secondary agent 33 mM + Maleic Acid 3 mM,0%
same,"reduction in virus infectivity, in Combination with Sulfosuccinic Acid (10-32 mM)",[1]; secondary agent 33 mM + Sulfosuccinic Acid 10-32 mM,99%
same,"reduction in virus infectivity, in Combination with Maleic Acid (3 mM)",[1]; secondary agent 66 mM + Maleic Acid 3 mM,0%
same,"reduction in virus infectivity, in Combination with Sulfosuccinic Acid (10-32 mM)",[1]; secondary agent 66 mM + Sulfosuccinic Acid 10-32 mM,99%
Aluminum chlorohydrate,"% Reduction, Secondary Antiviral Agent Alone",[1]; agent alone 2 mM,1%
same,"% Reduction, Secondary Antiviral Agent Alone",[1]; agent alone 6 mM,3%
same,"% Reduction, Secondary Antiviral Agent Alone",[1]; agent alone 18 mM,2%
same,"% Reduction, Secondary Antiviral Agent Alone",[1]; agent alone 55 mM,9%
same,"reduction in virus infectivity, in Combination with Maleic Acid (3 mM)",[1]; secondary agent 55 mM + Maleic Acid 3 mM,99%
same,"reduction in virus infectivity, in Combination with Phosphonc Acid (50-150 mM)",[1]; secondary agent 55 mM + Phosphonc Acid 50-150 mM,68%
same,"reduction in virus infectivity, in Combination with Sulfosuccinic Acid (10-32 mM)",[1]; secondary agent 55 mM + Sulfosuccinic Acid 10-32 mM,99%
same,"reduction in virus infectivity, in Combination with Maleic Acid (3 mM)",[1]; [3],17%
same,"reduction in virus infectivity, in Combination with Phosphonc Acid (50-150 mM)",[1]; [4],43%
same,"reduction in virus infectivity, in Combination with Sulfosuccinic Acid (10-32 mM)",[1]; [5],99%
same,"reduction in virus infectivity, in Combination with Maleic Acid (3 mM)",[1]; secondary agent 6-14 mM + Maleic Acid 3 mM,28%
same,"reduction in virus infectivity, in Combination with Phosphonc Acid (50-150 mM)",[1]; secondary agent 6-14 mM + Phosphonc Acid 50-150 mM,34%
same,"reduction in virus infectivity, in Combination with Sulfosuccinic Acid (10-32 mM)",[1]; secondary agent 6-14 mM + Sulfosuccinic Acid 10-32 mM,99%
same,"reduction in virus infectivity, in Combination with Maleic Acid (3 mM)",[1]; secondary agent 18-27 mM + Maleic Acid 3 mM,9%
same,"reduction in virus infectivity, in Combination with Phosphonc Acid (50-150 mM)",[1]; secondary agent 18-27 mM + Phosphonc Acid 50-150 mM,29%
same,"reduction in virus infectivity, in Combination with Sulfosuccinic Acid (10-32 mM)",[1]; secondary agent 18-27 mM + Sulfosuccinic Acid 10-32 mM,99%
Laureth-9 [Hetoxol LA-9],"% Reduction, Secondary Antiviral Agent Alone",[1]; agent alone 6 mM,0%
same,"% Reduction, Secondary Antiviral Agent Alone",[1]; agent alone 17 mM,0%
same,"% Reduction, Secondary Antiviral Agent Alone",[1]; agent alone 50 mM,0%
same,"% Reduction, Secondary Antiviral Agent Alone",[1]; agent alone 150 mM,2%
same,"reduction in virus infectivity, in Combination with Maleic Acid (3 mM)",[1]; secondary agent 0.2 mM + Maleic Acid 3 mM,9%
same,"reduction in virus infectivity, in Combination with Phosphonc Acid (50-150 mM)",[1]; secondary agent 0.2 mM + Phosphonc Acid 50-150 mM,57%
same,"reduction in virus infectivity, in Combination with Sulfosuccinic Acid (10-32 mM)",[1]; secondary agent 0.2 mM + Sulfosuccinic Acid 10-32 mM,5%
same,"reduction in virus infectivity, in Combination with Maleic Acid (3 mM)",[1]; secondary agent 1 mM + Maleic Acid 3 mM,65%
same,"reduction in virus infectivity, in Combination with Phosphonc Acid (50-150 mM)",[1]; secondary agent 1 mM + Phosphonc Acid 50-150 mM,62%
same,"reduction in virus infectivity, in Combination with Sulfosuccinic Acid (10-32 mM)",[1]; secondary agent 1 mM + Sulfosuccinic Acid 10-32 mM,0%
same,"reduction in virus infectivity, in Combination with Maleic Acid (3 mM)",[1]; secondary agent 5 mM + Maleic Acid 3 mM,0%
same,"reduction in virus infectivity, in Combination with Phosphonc Acid (50-150 mM)",[1]; secondary agent 5 mM + Phosphonc Acid 50-150 mM,11%
same,"reduction in virus infectivity, in Combination with Sulfosuccinic Acid (10-32 mM)",[1]; secondary agent 5 mM + Sulfosuccinic Acid 10-32 mM,0%
same,"reduction in virus infectivity, in Combination with Maleic Acid (3 mM)",[1]; secondary agent 27 mM + Maleic Acid 3 mM,0%
same,"reduction in virus infectivity, in Combination with Phosphonc Acid (50-150 mM)",[1]; secondary agent 27 mM + Phosphonc Acid 50-150 mM,10%
same,"reduction in virus infectivity, in Combination with Sulfosuccinic Acid (10-32 mM)",[1]; secondary agent 27 mM + Sulfosuccinic Acid 10-32 mM,0%
